According to article PMC7617978, “Anti-trypanosomal quinazolines targeting lysyl-tRNA synthetases show partial efficacy in a mouse model of acute Chagas disease” (Science translational medicine, 2025):

Key:
[1] = system: Lysyl-tRNA synthetase 1 (KRS1); experiment: Isothermal proteome profiling (iTPP), TcKRS1; type: binding, T. cruzi; conditions: KRS1 (C4B63_45g239); lysate, compound at 10× EC50, 48°C
Protocol: T. cruzi epimastigote lysates were generated as previously described ([29]). Isothermal TPP assays were performed as previously described ([25]). […] Data processing and analyses were performed as previously described ([25]), except proteins were identified via searches against the T. cruzi Dm28C proteome (tritrypdb.org, version 49).

[2] = DMU759 exposure in mice after oral dosing; type: in vivo; conditions: 50 mg/kg oral
Protocol: DMU759 (50 mg/kg) was orally administered to BALB/c mice. The dose solution was prepared on the day of dosing, and the vehicle was 0.5% (w/v) hydroxypropyl methylcellulose and 0.4% […]. Blood samples (10 μl) were collected from the tail vein of each animal at defined intervals then placed into 1.2 mL cryovials containing deionized water (90 μl) and stored at −80°C until analysis. Blood levels of DMU759 in mouse blood were determined by UPLC-MS/MS, as previously described ([58]).

[3] = system: T. cruzi CL Brener strain; experiment: Bioluminescent mouse model of acute T. cruzi infection; type: in vivo, BALB/c mice; conditions: 50 mg/kg BID oral, 5 days, from 10 days post-infection, bioluminescence imaging
Protocol: Female BALB/c mice (aged 6-7 weeks), purchased from Charles River (UK), were maintained under specific pathogen-free conditions in individually ventilated cages, with a 12 h light/dark cycle. They had access to food and water ad libitum. Mice were infected by intraperitoneal injection (i.p) of 1x10^3 bloodstream trypomastigotes derived from CB17 SCID mouse blood.
Compounds were prepared in 5% (v/v) dimethyl sulfoxide /95% HPMC suspension vehicle (0.5% (w/v) hydroxypropyl methylcellulose, 0.5% (v/v) benzyl alcohol, 0.4% (v/v) Tween 80 in Milli-Q water). Mice were treated as outlined in Fig. 5, with compounds administered by oral gavage. At different days after infection, mice were injected with d-luciferin (150 mg/kg) i.p., anaesthetized using 2.5% (v/v) gaseous isoflurane and imaged using an IVIS Spectrum (Revvity, Hopkinton, MA, USA) 5-10 min later. To estimate parasite burden, mice ventral and dorsal regions of interest were drawn using Living Image 4.7.3 to quantify bioluminescence expressed as total flux (photons/second; p/s). Regions of interest data from infected and not-infected mice were used as controls. Exposure times varied between 30 sec and 5 min, depending on the signal intensity.

Compound: Cc1nc(N)c2c(F)c(F)c(SC3CCCCC3)c(F)c2n1 [DMU759, 7-(Cyclohexylthio)-5,6,8-trifluoro-2-methylquinazolin-4-amine]
- Abundance Log2 fold change Rep 1 [1]: 2.26
- Abundance Log2 fold change Rep 2 [1]: 1.94
- free blood concentration versus EC99 ([2]; corrected for plasma protein binding, in words): did not exceed the established EC99
- time of peak blood concentration ([2]; post dosing): one
- time total blood concentrations exceeded EC99 ([2]; post dosing): up to 4 hours
- reduction of parasite burden (parasitemia) [3]: up to 81%
